In paper PMC11124870, “Effect of Antioxidants in Medicinal Products on Intestinal Drug Transporters” (Pharmaceutics, 2024):

Target: T1, BCRP (Homo sapiens, UniProt Q9UNQ0)
T1 sequence (Q9UNQ0 1-655): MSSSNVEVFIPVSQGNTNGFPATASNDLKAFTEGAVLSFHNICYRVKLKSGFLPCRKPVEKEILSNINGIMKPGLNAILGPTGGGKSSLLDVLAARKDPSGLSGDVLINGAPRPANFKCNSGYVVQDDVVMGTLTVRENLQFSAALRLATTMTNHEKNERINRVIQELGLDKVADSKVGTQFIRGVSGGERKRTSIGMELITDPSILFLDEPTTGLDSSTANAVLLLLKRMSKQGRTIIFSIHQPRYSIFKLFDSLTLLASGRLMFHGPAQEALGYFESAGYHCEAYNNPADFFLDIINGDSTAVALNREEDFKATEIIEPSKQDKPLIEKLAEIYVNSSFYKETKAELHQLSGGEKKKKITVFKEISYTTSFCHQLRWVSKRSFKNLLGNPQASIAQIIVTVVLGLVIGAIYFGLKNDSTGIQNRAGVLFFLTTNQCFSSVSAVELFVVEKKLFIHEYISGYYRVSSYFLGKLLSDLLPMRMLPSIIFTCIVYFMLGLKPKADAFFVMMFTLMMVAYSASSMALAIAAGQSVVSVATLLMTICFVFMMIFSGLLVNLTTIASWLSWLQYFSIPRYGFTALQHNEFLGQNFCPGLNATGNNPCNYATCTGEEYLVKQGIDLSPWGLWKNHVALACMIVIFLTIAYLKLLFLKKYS
Assay: Transwell transport assay, basal-to-apical prazosin flux in MDCK-hBCRP-cMDR1-KO cells
Conditions: BHA 178 µM on both sides; 3H-prazosin 1 µM; 4 h
Protocol: The transport assay was performed using MDCK-hMDR1-cMDR1-KO, MDCK-cMDR1-KO, and MDCK-hBCRP-cMDR1-KO as reported previously with minor modifications. In brief, 133,000 cells were seeded onto a Transwell membrane insert, a semipermeable polyethylene terephthalate membrane. During the differentiation process, the medium volume in the apical chamber was kept at 300 μL, while the basal chamber contained 1000 μL. The cells were allowed to differentiate for 7–9 days at 37 °C in a humidified incubator with 5% CO2. Before starting transporter assays, the integrity of the cell monolayer was checked using lucifer yellow permeability assays. […] From the basal chamber, 100 μL samples were collected for fluorescence measurements using GloMax® Explorer with a 475 nm excitation filter and a 500–550 nm emission filter to calculate the percent permeability per well.
To assess the flux of digoxin or prazosin from the basal to apical side, the cells were washed twice with HBSS. […] All apical and basal samples were mixed with scintillation fluid (EcoLite(+)™ liquid scintillation cocktail), and their radioactivity was measured using liquid scintillation counting (Beckman LS6500). […] For data analysis, the disintegration per minute counts of digoxin or prazosin from the apical samples were converted to picomoles using radioactivity measured in the substrate solution.

Which “Inhibition of prazosin efflux (basal to apical)” value does the source give for COc1ccc(O)cc1C(C)(C)C [Butylated hydroxyanisole (BHA), 2-tert-Butyl-4-hydroxyanisole] here?
Its value is “did not inhibit prazosin efflux”.
